Source: patent US12070457B2, “Substituted pyridines, pyridazines, pyrimidines, and 1,2,3-triazines as bruton's tyrosine kinase inhibitors” (HUTCHISON MEDIPHARMA LIMITED, priority 2020, dated 2024)

What was measured:
[1] = Stability test in liver microsomes (rat); format: in vitro ADME; conditions: 1 μM compound
In short: (§1)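 Compound (1 μM final) incubated 30 min at 37 °C with male CD-1 mouse or male SD rat pooled liver microsomes (0.5 mg/mL) in 50 mM phosphate buffer with 3 mM MgCl2, 1 mM EDTA and NADPH-regenerating system. Quenched with acetonitrile containing internal standard; LC-MS/MS gives percent remaining relative to 0-min sample.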

[2] = Stability test in liver microsomes (mouse); format: in vitro ADME; conditions: 1 μM compound
In short: as §1

[3] = 0.5 mg/mL liver microsomes, 30 minutes incubation

RLM, percentage of remaining compound after 30 minutes of incubation ([1]; rat liver microsomes, 30 min): 92.7%
MLM, percentage of remaining compound after 30 minutes of incubation ([2]; mouse liver microsomes, 30 min): 91.8%
SMILES: C[C@H]1CN(C2COC2)CCN1c1ccc(Nc2cc(-c3ccnc(-n4ccn5c6c(cc5c4=O)CC(C)(C)C6)c3CO)cn(C)c2=O)nc1 [Compound 19]
stability in rat liver microsomes compared with reference GDC-0853 [1, 3]: better than that of the reference GDC-0853
stability in mouse liver microsomes compared with reference GDC-0853 [2, 3]: better than that of the reference GDC-0853
